Test [1] addresses TYK2 JH2 pseudokinase (human) (UniProt P29597). The test is described as follows: KINOMEscan competition binding. Conditions: compound 10.0 µM.
A further test concerns the target FRK (human) (UniProt P42685). Briefly: KINOMEscan competition binding. Conditions: compound 10.0 µM.
A further test deals with PLK3 (human) (UniProt Q9H4B4). The test is described as follows: KINOMEscan competition binding. The following applies: compound 10.0 µM.
The target of the next test is GAK (human) (UniProt O14976). The test is described as follows: KINOMEscan competition binding. Conditions: compound 10.0 µM.
A further test addresses SLK (human) (UniProt Q9H2G2). The test is described as follows: KINOMEscan competition binding. The following applies: compound 10.0 µM.
The target of a further test is NEK5 (human) (UniProt Q6P3R8). Briefly: KINOMEscan competition binding. Conditions: compound 10.0 µM.
The next test addresses BMP2K (human) (UniProt Q9NSY1). The test is described as follows: KINOMEscan competition binding. Conditions: compound 10.0 µM.
In test [2] the test system is ABL1 (human), P00519 [F317I]. The test is described as follows: KINOMEscan competition binding. The following applies: compound 10.0 µM.
The target of a further test is PIP4K2B (human) (UniProt P78356). The test is described as follows: KINOMEscan competition binding. Conditions: compound 10.0 µM.
Test [3] relates to FLT3 (human), P36888 [D835H]. Briefly: KINOMEscan competition binding. Conditions: compound 10.0 µM.
The target of another test is STK10 (human) (UniProt O94804). The test is described as follows: KINOMEscan competition binding. Conditions: compound 10.0 µM.
A further test has as its target ULK1 (human) (UniProt O75385). Briefly: KINOMEscan competition binding. The following applies: compound 10.0 µM.
In the next test the target is RPS6KA6 KD2 (human) (UniProt Q9UK32). The test is described as follows: KINOMEscan competition binding. The following applies: compound 10.0 µM.
A further test has as its target PLK1 (human) (UniProt P53350). The test is described as follows: KINOMEscan competition binding. Conditions: compound 10.0 µM.
For test [4], the system named is ABL1 (human), P00519 [F317L]. The test is described as follows: KINOMEscan competition binding. Conditions: compound 10.0 µM.
In a further test the target is NEK9 (human) (UniProt Q8TD19). Briefly: KINOMEscan competition binding. The following applies: compound 10.0 µM.
A further test addresses RIOK1 (human) (UniProt Q9BRS2). Briefly: KINOMEscan competition binding. Conditions: compound 10.0 µM.
The next test has as its target CHEK1 (human) (UniProt O14757). The test is described as follows: KINOMEscan competition binding. The following applies: compound 10.0 µM.
The target of another test is SIK2 (human) (UniProt Q9H0K1). The test is described as follows: KINOMEscan competition binding. Conditions: compound 10.0 µM.
For another test, the target named is RPS6KA1 KD2 (human) (UniProt Q15418). The test is described as follows: KINOMEscan competition binding. Conditions: compound 10.0 µM.
Test [5] addresses TTK (human) (UniProt P33981). The test is described as follows: KINOMEscan competition binding. Conditions: for kinase still bound, per cent of control: compound 10.0 µM.
In a further test the target is DCLK3 (human) (UniProt Q9C098). The test is described as follows: KINOMEscan competition binding. Conditions: compound 10.0 µM.
The target of a further test is ULK2 (human) (UniProt Q8IYT8). Briefly: KINOMEscan competition binding. Conditions: compound 10.0 µM.
A further test has as its target MERTK (human) (UniProt Q12866). Briefly: KINOMEscan competition binding. Conditions: compound 10.0 µM.
In another test the target is TNK2 (human) (UniProt Q07912). The test is described as follows: KINOMEscan competition binding. Conditions: compound 10.0 µM.
For another test, the target named is STK33 (human) (UniProt Q9BYT3). The test is described as follows: KINOMEscan competition binding. The following applies: compound 10.0 µM.
For another test, the target named is PTK2 (human) (UniProt Q05397). Briefly: KINOMEscan competition binding. The following applies: compound 10.0 µM.
The next test concerns the target CAMKK2 (human) (UniProt Q96RR4). Briefly: KINOMEscan competition binding. Conditions: compound 10.0 µM.
The next test addresses FER (human) (UniProt P16591). The test is described as follows: KINOMEscan competition binding. The following applies: compound 10.0 µM.
The subject of test [6] is EGFR (human), P00533 [A750P; 747-749 del]. The test is described as follows: KINOMEscan competition binding. Conditions: compound 10.0 µM.
For a further test, the target named is FES (human) (UniProt P07332). The test is described as follows: KINOMEscan competition binding. The following applies: compound 10.0 µM.
Another test deals with SIK1 (human) (UniProt P57059). Briefly: KINOMEscan competition binding. The following applies: compound 10.0 µM.
For another test, the target named is DAPK3 (human) (UniProt O43293). Briefly: KINOMEscan competition binding. Conditions: compound 10.0 µM.
Test [7] has as its system FLT3 (human), P36888 [D835Y]. Briefly: KINOMEscan competition binding. The following applies: compound 10.0 µM.
In the next test the target is PTK2B (human) (UniProt Q14289). Briefly: KINOMEscan competition binding. Conditions: compound 10.0 µM.
Test [8] deals with TTK (human) (UniProt P33981). Briefly: SelectScreen, TR FRET. A general note: Time-resolved FRET reads energy transfer from a long-lived donor to a nearby acceptor.
The target in another test is EPHA8 (human) (UniProt P29322). The test is described as follows: KINOMEscan competition binding. The following applies: compound 10.0 µM.

In general, IC50 refers to the concentration that gives 50% inhibition. The low end stands for greater potency in that assay, the high end for weaker potency in that assay. As a reminder, the Kd is a measure of binding affinity in units of concentration. A higher Kd goes with lower affinity.

TTK (human), sequence (P33981 whole entry, looked up): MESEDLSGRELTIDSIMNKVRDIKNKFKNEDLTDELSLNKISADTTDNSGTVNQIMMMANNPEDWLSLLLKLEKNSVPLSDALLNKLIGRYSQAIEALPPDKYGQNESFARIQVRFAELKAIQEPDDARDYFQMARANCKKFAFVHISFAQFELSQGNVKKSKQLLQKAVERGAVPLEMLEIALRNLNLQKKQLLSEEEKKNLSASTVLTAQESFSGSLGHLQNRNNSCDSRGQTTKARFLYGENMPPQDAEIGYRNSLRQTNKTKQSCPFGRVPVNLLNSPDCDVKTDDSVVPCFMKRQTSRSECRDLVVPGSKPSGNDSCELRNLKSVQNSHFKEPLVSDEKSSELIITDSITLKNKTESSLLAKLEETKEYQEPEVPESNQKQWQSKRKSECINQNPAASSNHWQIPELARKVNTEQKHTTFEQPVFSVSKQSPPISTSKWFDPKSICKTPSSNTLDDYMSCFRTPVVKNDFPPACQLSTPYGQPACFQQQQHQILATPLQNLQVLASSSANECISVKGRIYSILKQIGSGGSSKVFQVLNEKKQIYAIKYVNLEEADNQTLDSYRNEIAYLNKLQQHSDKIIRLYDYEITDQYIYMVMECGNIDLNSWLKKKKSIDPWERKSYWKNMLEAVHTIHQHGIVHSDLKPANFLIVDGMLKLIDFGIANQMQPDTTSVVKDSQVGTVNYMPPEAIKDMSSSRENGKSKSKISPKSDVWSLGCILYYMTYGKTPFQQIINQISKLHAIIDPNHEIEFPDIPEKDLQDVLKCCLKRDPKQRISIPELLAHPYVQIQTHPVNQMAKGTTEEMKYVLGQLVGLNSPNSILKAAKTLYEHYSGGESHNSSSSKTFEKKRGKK
PLK1 (human), sequence (P53350 whole entry, looked up): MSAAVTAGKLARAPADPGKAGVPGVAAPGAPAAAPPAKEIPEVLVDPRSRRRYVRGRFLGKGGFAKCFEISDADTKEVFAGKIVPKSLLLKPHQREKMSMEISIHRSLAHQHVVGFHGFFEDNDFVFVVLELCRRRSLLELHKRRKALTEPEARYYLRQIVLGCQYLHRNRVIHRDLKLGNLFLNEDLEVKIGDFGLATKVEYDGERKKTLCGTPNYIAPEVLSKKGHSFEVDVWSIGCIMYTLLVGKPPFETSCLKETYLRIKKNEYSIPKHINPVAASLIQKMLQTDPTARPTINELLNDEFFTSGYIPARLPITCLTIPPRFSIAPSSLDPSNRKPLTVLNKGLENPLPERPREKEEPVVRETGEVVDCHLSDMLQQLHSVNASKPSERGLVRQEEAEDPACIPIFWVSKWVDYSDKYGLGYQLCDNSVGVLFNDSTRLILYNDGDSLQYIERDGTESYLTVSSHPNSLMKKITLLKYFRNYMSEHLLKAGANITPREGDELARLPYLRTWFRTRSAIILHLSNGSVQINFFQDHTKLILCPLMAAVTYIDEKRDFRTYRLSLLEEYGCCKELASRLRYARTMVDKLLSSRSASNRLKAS
GAK (human), sequence (O14976 whole entry, looked up): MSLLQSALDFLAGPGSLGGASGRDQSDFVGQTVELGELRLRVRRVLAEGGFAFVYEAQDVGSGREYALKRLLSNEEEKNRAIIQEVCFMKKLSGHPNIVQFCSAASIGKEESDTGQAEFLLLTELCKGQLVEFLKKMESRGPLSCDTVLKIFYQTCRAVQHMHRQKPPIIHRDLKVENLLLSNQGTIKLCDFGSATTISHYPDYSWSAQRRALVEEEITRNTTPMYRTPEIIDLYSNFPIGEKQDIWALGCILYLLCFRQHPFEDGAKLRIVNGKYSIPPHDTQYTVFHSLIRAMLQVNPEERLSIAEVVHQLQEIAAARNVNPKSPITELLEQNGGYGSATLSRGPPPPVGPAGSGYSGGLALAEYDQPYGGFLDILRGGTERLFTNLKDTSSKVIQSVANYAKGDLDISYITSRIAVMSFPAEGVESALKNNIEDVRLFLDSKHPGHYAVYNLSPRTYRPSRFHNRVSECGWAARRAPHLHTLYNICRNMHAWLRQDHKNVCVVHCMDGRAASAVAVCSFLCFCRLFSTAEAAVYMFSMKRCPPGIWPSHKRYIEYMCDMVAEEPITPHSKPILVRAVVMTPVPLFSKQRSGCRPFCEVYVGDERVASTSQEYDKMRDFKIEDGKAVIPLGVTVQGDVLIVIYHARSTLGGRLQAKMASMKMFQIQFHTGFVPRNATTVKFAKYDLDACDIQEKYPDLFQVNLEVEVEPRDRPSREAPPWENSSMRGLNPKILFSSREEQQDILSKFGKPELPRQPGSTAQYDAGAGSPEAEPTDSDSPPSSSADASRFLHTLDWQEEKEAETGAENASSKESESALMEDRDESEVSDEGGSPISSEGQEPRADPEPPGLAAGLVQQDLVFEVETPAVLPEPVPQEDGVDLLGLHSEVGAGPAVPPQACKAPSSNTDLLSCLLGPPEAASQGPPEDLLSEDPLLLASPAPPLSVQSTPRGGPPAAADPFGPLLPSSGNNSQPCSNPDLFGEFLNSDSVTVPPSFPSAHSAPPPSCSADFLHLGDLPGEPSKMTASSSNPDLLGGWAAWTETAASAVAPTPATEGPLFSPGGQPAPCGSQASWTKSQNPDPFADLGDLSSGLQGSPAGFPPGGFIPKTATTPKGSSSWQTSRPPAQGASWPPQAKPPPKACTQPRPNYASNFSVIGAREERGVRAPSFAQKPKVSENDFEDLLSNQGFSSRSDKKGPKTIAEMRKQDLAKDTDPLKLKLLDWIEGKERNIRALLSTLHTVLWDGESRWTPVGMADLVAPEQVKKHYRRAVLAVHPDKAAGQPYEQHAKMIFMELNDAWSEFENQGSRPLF
TNK2 (human), sequence (Q07912 whole entry, looked up): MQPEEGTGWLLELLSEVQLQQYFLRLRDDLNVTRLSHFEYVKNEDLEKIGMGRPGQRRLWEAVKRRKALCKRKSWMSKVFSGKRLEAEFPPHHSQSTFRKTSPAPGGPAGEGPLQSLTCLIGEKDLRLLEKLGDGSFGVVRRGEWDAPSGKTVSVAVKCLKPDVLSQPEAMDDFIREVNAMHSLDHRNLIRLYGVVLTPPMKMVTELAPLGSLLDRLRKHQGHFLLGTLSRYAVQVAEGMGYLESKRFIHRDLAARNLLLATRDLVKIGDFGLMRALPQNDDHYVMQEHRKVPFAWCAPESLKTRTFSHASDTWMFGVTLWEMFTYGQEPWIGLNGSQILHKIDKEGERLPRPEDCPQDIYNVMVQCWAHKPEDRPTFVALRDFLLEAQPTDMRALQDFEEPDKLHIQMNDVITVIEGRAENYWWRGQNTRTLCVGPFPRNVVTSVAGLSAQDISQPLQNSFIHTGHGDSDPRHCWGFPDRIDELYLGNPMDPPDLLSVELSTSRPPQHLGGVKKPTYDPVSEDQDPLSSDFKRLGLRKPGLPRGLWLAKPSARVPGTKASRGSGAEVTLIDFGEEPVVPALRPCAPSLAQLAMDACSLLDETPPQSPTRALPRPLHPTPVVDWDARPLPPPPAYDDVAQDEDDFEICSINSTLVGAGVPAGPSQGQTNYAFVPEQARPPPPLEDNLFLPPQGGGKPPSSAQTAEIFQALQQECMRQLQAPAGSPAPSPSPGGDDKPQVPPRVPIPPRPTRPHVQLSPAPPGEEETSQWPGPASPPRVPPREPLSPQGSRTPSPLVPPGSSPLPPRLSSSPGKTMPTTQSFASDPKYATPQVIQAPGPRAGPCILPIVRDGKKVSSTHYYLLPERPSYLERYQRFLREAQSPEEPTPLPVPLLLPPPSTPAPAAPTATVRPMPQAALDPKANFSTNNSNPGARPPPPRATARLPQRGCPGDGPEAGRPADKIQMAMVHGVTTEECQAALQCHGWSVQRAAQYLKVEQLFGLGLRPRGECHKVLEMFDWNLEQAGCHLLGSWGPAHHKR
RIOK1 (human), sequence (Q9BRS2 whole entry, looked up): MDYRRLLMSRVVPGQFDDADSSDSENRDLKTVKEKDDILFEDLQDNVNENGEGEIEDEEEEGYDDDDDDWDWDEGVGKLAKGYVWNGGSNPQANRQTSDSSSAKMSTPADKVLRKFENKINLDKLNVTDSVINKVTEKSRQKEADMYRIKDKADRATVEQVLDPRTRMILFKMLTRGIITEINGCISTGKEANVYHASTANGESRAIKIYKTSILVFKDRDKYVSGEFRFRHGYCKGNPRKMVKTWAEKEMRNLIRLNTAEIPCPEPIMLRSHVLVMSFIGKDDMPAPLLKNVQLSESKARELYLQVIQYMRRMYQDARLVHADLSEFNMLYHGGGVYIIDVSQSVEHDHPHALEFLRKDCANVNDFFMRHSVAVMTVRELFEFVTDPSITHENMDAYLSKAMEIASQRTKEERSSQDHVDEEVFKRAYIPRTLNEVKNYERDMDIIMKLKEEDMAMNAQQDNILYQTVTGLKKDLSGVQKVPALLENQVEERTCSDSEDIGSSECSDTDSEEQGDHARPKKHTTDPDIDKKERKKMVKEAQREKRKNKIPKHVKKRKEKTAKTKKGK
DCLK3 (human), sequence (Q9C098 whole entry, looked up): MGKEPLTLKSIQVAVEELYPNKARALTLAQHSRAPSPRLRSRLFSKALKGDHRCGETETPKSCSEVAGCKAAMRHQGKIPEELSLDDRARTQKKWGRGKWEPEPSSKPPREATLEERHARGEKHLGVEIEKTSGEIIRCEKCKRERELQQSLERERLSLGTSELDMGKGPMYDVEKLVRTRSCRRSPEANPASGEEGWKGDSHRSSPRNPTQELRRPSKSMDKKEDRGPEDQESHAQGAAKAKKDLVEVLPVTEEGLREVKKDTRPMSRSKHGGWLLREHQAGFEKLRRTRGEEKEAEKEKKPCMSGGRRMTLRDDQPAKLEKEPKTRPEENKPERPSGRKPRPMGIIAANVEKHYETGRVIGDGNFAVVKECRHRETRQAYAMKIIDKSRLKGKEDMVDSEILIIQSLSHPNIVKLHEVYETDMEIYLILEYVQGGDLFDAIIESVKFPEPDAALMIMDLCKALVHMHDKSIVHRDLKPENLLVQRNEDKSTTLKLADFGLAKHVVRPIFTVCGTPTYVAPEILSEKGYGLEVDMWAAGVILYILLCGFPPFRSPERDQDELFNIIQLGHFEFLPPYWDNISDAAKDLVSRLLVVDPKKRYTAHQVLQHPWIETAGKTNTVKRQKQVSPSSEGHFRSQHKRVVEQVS

On to `COc1cc(N2CCN(C)CC2)ccc1Nc1ncc2c(n1)N(C1CCCC1)C(C)CC(=O)N2` (stereo unspecified), for which the kinase still bound, per cent of control in test [1] came to 32%; at FRK (human) it was 7%; at PLK3 (human) it was 11%; at GAK (human), 1%; at SLK (human), 3.2%; at NEK5 (human), 30%. Besides, the kinase still bound, per cent of control on BMP2K (human) came out at 19%; in test [2], 29%; at PIP4K2B (human) it was 31%; in [3] it was 30%; on STK10 (human), 10%; at ULK1 (human) it was 7.8%. The kinase still bound, per cent of control on RPS6KA6 KD2 (human) stood at 4.7%; on PLK1 (human), 2.1%; in test [4], 30%; on NEK9 (human), 27%; at RIOK1 (human), 32%; at CHEK1 (human) it was 14%. In addition, the kinase still bound, per cent of control came out at 26% on SIK2 (human); 22% at RPS6KA1 KD2 (human); 14% at TTK (human) [5]; 4% at DCLK3 (human); 1.2% on ULK2 (human); 23% at MERTK (human). In addition, the kinase still bound, per cent of control on TNK2 (human) amounted to 7.4%; on STK33 (human), 18%; on PTK2 (human) it was 1.9%; at CAMKK2 (human), 31%; on FER (human), 21%; in test [6] it was 33%. Moreover, the kinase still bound, per cent of control on FES (human) was found to be 26%; on SIK1 (human), 14%; at DAPK3 (human), 13%; in test [7], 26%; on PTK2B (human) it was 13%.
The compound `CC(C)Oc1cc(N2CCC(O)CC2)ccc1Nc1ncc2c(n1)N(C1CCCC1)CCC(=O)N2C` came in with a half-maximal inhibitory concentration (IC50) on TTK (human) [8] of 605 nM. Also, the kinase still bound, per cent of control on GAK (human) worked out at 29%; at EPHA8 (human) it was 0%; on PLK1 (human), 14%; on TTK (human) [5] it was 2.4%. Also, the equilibrium dissociation constant (Kd) at TTK (human) [5] was found to be 113 nM.

For the origin of these results see the kinase profiling compilation of Christmann-Franck et al. (2016).
